Assay results published in patent US10596172B2 (Celgene CAR LLC, priority 2008, dated 2020).
Like-named read-outs stand apart in the source and are kept apart here.

System: B cell lymphoma cell lines
Test: B cell lymphoma proliferation assay
Format: cell-based
[1] = Homo sapiens, DOHH-2, DOHH2 B cell lymphoma cell line, read-out: EC50 (μM) DOHH2
[2] = Homo sapiens, WSUDLCL2, WSU-DLCL2 B cell lymphoma cell line, read-out: EC50 (μM) WSU-DLCL2
[3] = DHL4 B cell lymphoma cell line, read-out: EC50 (μM) DHL4

Structure (SMILES) | EC50 [1] [µM] | EC50 [2] [µM] | EC50 [3] [µM]
C=CC(=O)Nc1cccc(Nc2nc(Nc3ccc(N(C)CCOC)nc3)ncc2F)c1 [Compound I-77, N-(3-(5-fluoro-2-(6-((2-methoxyethyl)(methyl)amino)pyridin-3-ylamino)pyrimidin-4-ylamino)phenyl)acrylamide] | 0.1 to 1 | – | –
C=CC(=O)Nc1cccc(Nc2nc(Nc3ccc(OCC4CCN(C)CC4)nc3)ncc2F)c1 [Compound I-78, N-(3-(5-fluoro-2-(6-((1-methylpiperidin-4-yl)methoxy)pyridin-3-ylamino)pyrimidin-4-ylamino)phenyl)acrylamide] | 0.1 to 1 | – | –
C=CC(=O)Nc1cccc(Nc2nc(Nc3ccc(OC4CCC4)nc3)ncc2F)c1 [Compound I-79, N-(3-(2-(6-cyclobutoxypyridin-3-ylamino)-5-fluoropyrimidin-4-ylamino)phenyl)acrylamide] | 1 to 10 | – | –
C=CC(=O)Nc1cccc(Nc2nc(Nc3ccc(OCCCS(C)(=O)=O)nc3)ncc2F)c1 [Compound I-80, N-(3-(5-fluoro-2-(6-(3-(methylsulfonyl)propoxy)pyridin-3-ylamino)pyrimidin-4-ylamino)phenyl)acrylamide] | 0.1 to 1 | – | –
C=CC(=O)Nc1cccc(Oc2nc(Nc3cccc(OCC4CCCN(C)C4)c3)ncc2F)c1 (stereo not shown) [Compound I-81, N-(3-(5-fluoro-2-(3-((1-methylpiperidin-3-yl)methoxy)phenylamino)pyrimidin-4-yloxy)phenyl)acrylamide] | 0.1 to 1 | – | –
C=CC(=O)Nc1cccc(Nc2nc(Nc3ccc(OCc4ccccn4)c(Cl)c3)ncc2F)c1 [Compound I-86, N-(3-(2-(3-chloro-4-(pyridin-2-ylmethoxy)phenylamino)-5-fluoropyrimidin-4-ylamino)phenyl)acrylamide] | > 10 | – | –
C=CC(=O)Nc1cc(Nc2nc(Nc3ccc(OCCOC)cc3)ncc2F)ccc1F [Compound I-87, N-(2-fluoro-5-(5-fluoro-2-(4-(2-methoxyethoxy)phenylamino)pyrimidin-4-ylamino)phenyl)acrylamide] | 1 to 10 | – | –
COCCOc1ccc(Nc2ncc(F)c(Nc3cccc(NC(=O)/C=C/CN4CC[C@H](O)C4)c3)n2)cc1 [Compound I-88, (S,E)-N-(3-(5-fluoro-2-(4-(2-methoxyethoxy)phenylamino)pyrimidin-4-ylamino)phenyl)-4-(3-hydroxypyrrolidin-1-yl)but-2-enamide] | 1 to 10 | – | –
COCCOc1ccc(Nc2ncc(F)c(Nc3cccc(NC(=O)/C=C/CN4CC[C@@H](O)C4)c3)n2)cc1 [Compound I-89, (R,E)-N-(3-(5-fluoro-2-(4-(2-methoxyethoxy)phenylamino)pyrimidin-4-ylamino)phenyl)-4-(3-hydroxypyrrolidin-1-yl)but-2-enamide] | 1 to 10 | – | –
C=CC(=O)Nc1cccc(Nc2nc(Nc3ccc(OCC4CCN(C)CC4)cc3)ncc2F)c1 [Compound I-90, N-(3-(5-fluoro-2-(4-((1-methylpiperidin-4-yl)methoxy)phenylamino)pyrimidin-4-ylamino)phenyl)acrylamide] | 0.1 to 1 | – | –
C=CC(=O)Nc1cccc(Nc2nc(Nc3cccc(OC(C)(C)CO)c3)ncc2F)c1 [Compound I-91, N-(3-(5-fluoro-2-(3-(1-hydroxy-2-methylpropan-2-yloxy)phenylamino)pyrimidin-4-ylamino)phenyl)acrylamide] | 1 to 10 | 1 to 10 | –
C=CC(=O)Nc1cccc(Nc2nc(Nc3ccc(OCCOC)nc3)ncc2F)c1 [Compound I-103, N-(3-(5-fluoro-2-(6-(2-methoxyethoxy)pyridine-3-ylamino)pyrimidin-4-ylamino)phenyl)acrylamide] | – | 1 to 10 | –
C=CC(=O)Nc1cccc(Nc2nc(Nc3cccc(OCCO)c3)ncc2F)c1 [Compound I-105, N-(3-(5-fluoro-2-(3-(2-hydroxyethoxy)phenylamino)pyrimidin-4-ylamino)phenyl)acrylamide] | 0.1 to 1 | 1 to 10 | –
C=CC(=O)Nc1cccc(Nc2nc(Nc3ccc(OCCO)nc3)ncc2C(C)=O)c1 [Compound I-121, N-(3-{5-Acetyl-2-[6-(2-hydroxy-ethoxy)-pyridin-3-ylamino]-pyrimidin-4-ylamino}-phenyl)-acrylamide] | 1 to 10 | – | –
C=CC(=O)Nc1cccc(Nc2nc(Nc3ccc(OCCOC)nc3)ncc2C(C)=O)c1 [Compound I-122, N-(3-{5-Acetyl-2-[6-(2-methoxy-ethoxy)-pyridin-3-ylamino]-pyrimidin-4-ylamino}-phenyl)-acrylamide] | 1 to 10 | – | –
C=CC(=O)Nc1cccc(Nc2nc(Nc3ccc(OCCOC)cc3)ncc2C(C)=O)c1 [Compound I-124, N-(3-{5-Acetyl-2-[4-(2-methoxy-ethoxy)-phenylamino]-pyrimidin-4-ylamino}-phenyl)-acrylamide] | 1 to 10 | – | –
C=CC(=O)Nc1cccc(Nc2nc(Nc3ccc4c(c3)N(C)CCO4)ncc2F)c1 [Compound I-126, N-(3-(2-(4-methyl-2,3-dihydrobenzo[1,4]oxazin-6-yl)amino-5-fluoropyrimidin-4-ylamino)phenyl)acrylamide] | < 0.1 | – | –
C=CC(=O)N1CCOc2ccc(Nc3nc(Nc4ccc(OCCO)nc4)ncc3C(C)=O)cc21 [Compound I-128, 1-(6-{5-Acetyl-2-[6-(2-hydroxy-ethoxy)-pyridin-3-ylamino]-pyrimidin-4-ylamino}-2,3-dihydro-benzo[1,4]oxazin-4-yl)-propenone] | 1 to 10 | – | –

Structure (SMILES) | EC50 [1] [µM] | EC50 [2] [µM] | EC50 [3] [µM]
C=CC(=O)N1CCOc2ccc(Nc3nc(Nc4ccc5c(c4)CC(=O)N5)ncc3C(C)=O)cc21 [Compound I-129, 5-[5-Acetyl-4-(4-acryloyl-3,4-dihydro-2H-benzo[1,4]oxazin-6-ylamino)-pyrimidin-2-ylamino]-1,3-dihydro-indol-2-one] | 1 to 10 | – | –
C=CC(=O)N1Cc2ccc(Nc3nc(Nc4cccc(OC)c4)ncc3C(F)(F)F)cc2C1 [Compound I-132, 1-(5-(5-trifluoromethyl-2-(3-methoxyphenylamino)pyrimidin-4-yl)amino-1,3-dihydroisoindol-2-yl)2-propen-1-one] | 1 to 10 | – | 1 to 10
C=CC(=O)Nc1cccc(Nc2nc(Nc3cc(OC)c(OC)c(OC)c3)ncc2F)c1 [Compound I-133, 4-(3-acrylamidophenylamino)-5-fluoro-2-(3,4,5-trimethoxyphenylamino)-pyrimidine] | 0.1 to 1 | – | < 0.1
C=CC(=O)Nc1cccc(Nc2nc(Nc3ccc(OC)c(OC)c3)ncc2F)c1 [Compound I-134, 4-(3acrylamidophenylamino)-5-fluoro-2-(3,4-dimethoxyphenylamino)-pyrimidine] | 0.1 to 1 | – | < 0.1
C=CC(=O)N1CCC[C@@H](Nc2nc(Nc3cccc(OCCN4CCOCC4)c3)ncc2F)C1 [Compound I-135, (R)-1-(3-(5-fluoro-2-(3-(2-morpholinoethoxy)phenylamino)pyrimidin-4-ylamino)piperidin-1-yl)prop-2-en-1-one] | > 10 | – | > 10
C=CC(=O)Nc1cccc(Nc2nc(Nc3cccc(OCCCS(C)(=O)=O)c3)ncc2F)c1 [Compound I-138, 4-(3-acrylamidophenylamino)-5-fluoro-2-(3-(3-(methylsulfonyl)propoxy)phenylamino)-pyrimidine] | 1 to 10 | – | 1 to 10
C=CC(=O)N1CCOc2ccc(Nc3nc(Nc4ccc(OCCOC)cc4)ncc3F)cc21 [Compound I-141, 1-(6-(5-fluoro-2-(4-(2-methoxyethoxy)phenylamino)pyrimidin-4-ylamino)-2H-benzo[b][1,4]oxazin-4(3H)-yl)prop-2-en-1-one] | 1 to 10 | – | –
C=CC(=O)N1CCOc2ccc(Nc3nc(Nc4ccc(N(C)C(=O)C(F)(F)F)nc4)ncc3C(C)=O)cc21 [Compound I-142, N-(5-(5-acetyl-4-(4-acryloyl-3,4-dihydro-2H-benzo[b][1,4]oxazin-6-ylamino)pyrimidin-2-ylamino)pyridin-2-yl)-2,2,2-trifluoro-N-methylacetamide] | 1 to 10 | – | –
C=CC(=O)Nc1cccc(Nc2nc(Nc3ccc4c(c3)N(C(=O)C(F)(F)F)CCO4)ncc2F)c1 [Compound I-143, N-(3-(2-(4-trifluoroacetyl-2,3-dihydrobenzo[1,4]oxazin-6-yl)amino-5-fluoropyrimidin-4-ylamino)phenyl)acrylamide] | 1 to 10 | 1 to 10 | 1 to 10
C=CC(=O)N1CCC[C@@H](Nc2nc(Nc3cccc(Cl)c3)ncc2F)C1 [Compound I-147, (R)-1-(3-(2-(3-chlorophenylamino)-5-fluoropyrimidin-4-ylamino)piperidin-1-yl)prop-2-en-1-one] | 1 to 10 | – | –
C=CC(=O)N1CCOc2ccc(Nc3nc(Nc4ccc(OCCOC)cc4)ncc3C(C)=O)cc21 [Compound I-150, 1-(6-{5-Acetyl-2-[4-(2-methoxy-ethoxy)-phenylamino]-pyrimidin-4-ylamino}-2,3-dihydro-benzo[1,4]oxazin-4-yl)-propenone] | 1 to 10 | 1 to 10 | 1 to 10
C=CC(=O)Nc1cccc(Nc2nc(Nc3ccc4c(cnn4C(=O)OC(C)(C)C)c3)ncc2F)c1 [Compound I-151] | 1 to 10 | – | 1 to 10
C=CC(=O)N1CCOc2ccc(Nc3nc(Nc4ccc(N5CCCC5=O)cc4)ncc3C(C)=O)cc21 [Compound I-152, 1-{4-[5-Acetyl-4-(4-acryloyl-3,4-dihydro-2H-benzo[1,4]oxazin-6-ylamino)-pyrimidin-2-ylamino]-phenyl}-pyrrolidin-2-one] | 1 to 10 | – | –
C=CC(=O)Nc1cccc(Nc2nc(Nc3ccc4c(cnn4C)c3)ncc2F)c1 [Compound I-155] | 1 to 10 | 1 to 10 | 1 to 10
C=CC(=O)Nc1cccc(Nc2nc(Nc3ccc4[nH]ncc4c3)ncc2F)c1 [Compound I-156] | 0.1 to 1 | 1 to 10 | 1 to 10
C=CC(=O)Nc1cccc(Nc2nc(Nc3ccccc3)ncc2C#N)c1 [Compound I-157, N-(3-(5-cyano-2-(phenylamino)pyrimidin-4-ylamino)phenyl)acrylamide] | 1 to 10 | 1 to 10 | 1 to 10
C=CC(=O)Nc1cccc(Nc2nc(Nc3cccc(OC)c3)ncc2OC)c1 [Compound I-158, N-(3-(5-methoxy-2-(3-methoxyphenylamino)pyrimidin-4-ylamino)phenyl)acrylamide] | 1 to 10 | 1 to 10 | 1 to 10
